{
  "source": "patent US20100152137A1",
  "about": "“Alkylphospholipids as active agents for prevention of plant pathogens” (KTB-Tumorforschungs GMBH, priority 2006, published 2010)",
  "key": {"Plasmopara viticola [1]": {"test_system": "Plasmopara viticola", "experiment": "Grapevine leaf disk test against downy mildew", "assay_type": "in vivo, Plasmopara viticola on Vitis vinifera cv. Müller-Thurgau", "conditions": "for Average infestation intensity: five-point scale 1-5, per experiment; for No. of leaf disks at scale point 1 (no sporulation) / No. of leaf disks at scale point 2 / No. of leaf disks at scale point 3 / No. of leaf disks at scale point 4 / No. of leaf disks at scale point 5 (sporulation all over the surface): six days after infection", "protocol": "Greenhouse plants of the variety Müller-Thurgau (Vitis vinifera cv. Müller-Thurgau) served as the starting material. Young leaves were sterilized on the surface with 70% (v/v) ethanol. Subsequently, leaf disks of 16 mm in diameter were punched out and placed upside down onto water agar (0.8%) in transparent boxes. One drop (about 60 μl) of an aqueous test solution (concentrations employed, see FIG. 1) was applied 24 h before the infection with the pathogen causing downy mildew (Plasmopara viticola), and the leaf disks were incubated at 25° C. (16 h of white light 300 μmol m^−2 s^−1; 8 h of dark) and >95% relative humidity. After 24 h, the drop was removed and replaced by a drop containing spores of the pathogen (about 50 μl of an aqueous suspension containing 2×10^5 sporangia/mil). The infestation intensity was determined six days after the infection.\nThe infestation intensity was determined by means of a five-point scale ranging from 1 (no sporulation) to 5 (sporulation all over the surface). For each substance and concentration, 10 leaf disks per experiment were evaluated, and the mean value from at least three independent parallel experiments was determined. Distilled water and phosphite as negative and positive controls, respectively."}, "Plasmopara viticola [2]": {"test_system": "Plasmopara viticola", "experiment": "Downy mildew control on intact greenhouse plants", "assay_type": "in vivo, Plasmopara viticola on Vitis vinifera cv. Müller-Thurgau", "conditions": "for II (%) per REP / II (%) per variant: infestation intensity; for RW II IF (%): relation value for infestation frequency vs control; for RW II II (%): relation value for infestation intensity vs control", "protocol": "Greenhouse plants of the variety Müller-Thurgau (Vitis vinifera cv. Müller-Thurgau) served as the starting material. At least three plants each in the ten leaf stage were employed per test solution. HePC was applied (sprayed with the application device System Schachtner) in concentrations of 0.01%, 0.05% and 0.1%. In an additional experiment with 0.01% HePC, the same concentration of HePC (0.01%) was additionally applied one week before (2×HePC). After 24 h from the application of the test solutions, the plants were infected with the pathogen causing downy mildew (Plasmopara viticola). Six days after the infection, the sporulation of Plasmopara viticola was induced, and then the infestation intensity was established.\nThus, the percent proportion of the sporulating surface area relative to the entire surface area of each leaf was visually observed. For each substance and concentration, the leaves of at least three plants were evaluated, and the mean value determined. The application of distilled water served as a negative control. The experiment was repeated twice."}, "Plasmopara viticola [3]": {"test_system": "Plasmopara viticola", "experiment": "Downy mildew control on Gutedel seedlings", "assay_type": "in vivo, Plasmopara viticola on Gutedel seedlings", "conditions": "for Infestation incidence (%) / Infestation intensity (%): evaluated after 10 days", "protocol": "The examinations were performed with seedlings of the variant “Gutedel”, the seedlings having 3-4 leaves and a height of 8-12 cm at the time of application. HePC (0.01 and 0.001%) was applied with a rotary plate automated spraying device (about 1.2 bar spraying pressure) for 20 seconds. For each concentration, 6 plants were treated, which also applied to the positive control (infection, no treatment) and negative control (no infection, no treatment).\nAfter the leaves had dried, the plants were infected/sprayed with Plasmopara viticola (spore suspension (100,000 spores/ml)) and further kept at 21° C. and 100% RH in a cycle of 16 h of day and 8 h of night.\nThe proportion of leaves infested (incidence) and the intensity of infestation, i.e., the infested proportion of the leaf areas, were evaluated."}, "[4]": {"test_system": "pathogen causing downy mildew of grapevine", "experiment": "Outdoor test in the vineyard under practical conditions", "assay_type": "in vivo, Müller-Thurgau grapevine", "conditions": "HePC 0.2%, no artificial infection, status Jun. 19, 2007", "from_the_text": "Currently (vegetation period of 2007), HePC (0.2%) is being tested in an outdoor test. In these experiments, the plants in a commercial vineyard (Müller-Thurgau, age about 15 years) are not artificially infected. For this experiment, 3×6 plants (different locations in the vineyard) were employed. In addition, a corresponding untreated control is observed. […] Thus, to date, it has not been possible to observe infestation of the plants treated with HePC, despite of the currently sticky and humid weather (optimum infection conditions) and the very early start of the vegetation period in this year. In contrast, infestation of the control has already been observed."}, "[5]": {"test_system": "single cell culture of Vitis vinifera cv. Pinot noir", "experiment": "pH change (alcalinization) in the medium of a single cell culture of grapevine", "assay_type": "cell-based", "from_the_text": "A response of plant cells to substances that can induce resistance in plants is to open ion channels in the cell membrane. Thereupon, protons flow into the interior of the cell, which causes alcalinization of the medium surrounding the cell. This temporary alcalinization has been measured.\nGreenhouse plants of the variety Pinot noir (Vitis vinifera cv. Pinot noir) served as the starting material. A callus culture was started first from young shoots. Thus, the plant parts were cut into pieces about 1-2 cm in size, washed in 70% (v/v) ethanol and sterilized in 3.5% (w/v) NaOCl solution for about 2 min. The sterilized tissue pieces were transferred to solid MS nutrient medium (Murashige, T. and Skoog, F., Physiol. Plant, 18: 100-127 (1962)) and slightly pushed into the agar, so that the cuts came into contact with the medium. The formation of callus tissue occurred at 23° C. in a phytochamber (16 h of white light 300 μmol m^−2 s^−1; 8 h of dark; >95% relative humidity). At the cuts, calluses formed, which were repeatedly transferred to a new medium in a sterile manner after 4-6 weeks.\nStarting from strongly growing callus cultures, single cell cultures were started. Thus, cells were passaged under sterile conditions from callus tissue to liquid MS nutrient medium. The cell cultures were grown in a temperature constant room at 23° C. on a rotary shaker (120 rpm). In regular passage cycles of 4 days, the cell cultures were admixed with 40 ml of new liquid MS nutrient medium and distributed in two equal parts of about 40 ml to two 250 ml Erlenmeyer flasks.\nFor measuring the pH of the medium, 10 ml of a 2 days old cell culture was added to a small rolled rim vial. The rolled rim vial was placed onto a shaker, and a pH electrode was immersed into the cell culture. The electrode was fixed to be constantly washed round by the cell culture. The revolutions per minute of the shaker was 140 rpm. After the measured pH had stabilized, the substance to be tested was added, and the change of pH was continuously recorded with a plotter."}, "[6]": {"conditions": "HePC 0.05%, infestation frequency"}},
  "note": "Several values for one entry are separate records, joined by “and”; a condition that tells them apart may be missing. Identical values can stand only once.",
  "data": [
    {"smiles": "CCCCCCCCCCCCCCCCOP(=O)([O-])OCC[N+](C)(C)C", "note": "[HePC, hexadecylphosphocholine]", "values": [
      {"measurement": "Average infestation intensity", "setting": "Plasmopara viticola [1]; HePC 0.0001%", "value": "5.0 and 2.9"},
      {"measurement": "No. of leaf disks at scale point 1 (no sporulation)", "setting": "Plasmopara viticola [1]; HePC 0.0001%", "value": 0},
      {"measurement": "Average infestation intensity", "setting": "Plasmopara viticola [1]; HePC 0.01%", "value": 1.0},
      {"measurement": "No. of leaf disks at scale point 1 (no sporulation)", "setting": "Plasmopara viticola [1]; HePC 0.01%", "value": 9},
      {"measurement": "No. of leaf disks at scale point 2", "setting": "Plasmopara viticola [1]; HePC 0.01%", "value": 0},
      {"measurement": "No. of leaf disks at scale point 3", "setting": "Plasmopara viticola [1]; HePC 0.01%", "value": 0},
      {"measurement": "No. of leaf disks at scale point 4", "setting": "Plasmopara viticola [1]; HePC 0.01%", "value": 0},
      {"measurement": "No. of leaf disks at scale point 5 (sporulation all over the surface)", "setting": "Plasmopara viticola [1]; HePC 0.01%", "value": 0},
      {"measurement": "Average infestation intensity", "setting": "Plasmopara viticola [1]; HePC 0.1%", "value": 1.0},
      {"measurement": "No. of leaf disks at scale point 1 (no sporulation)", "setting": "Plasmopara viticola [1]; HePC 0.1%", "value": 9},
      {"measurement": "No. of leaf disks at scale point 2", "setting": "Plasmopara viticola [1]; HePC 0.1%", "value": 0},
      {"measurement": "No. of leaf disks at scale point 3", "setting": "Plasmopara viticola [1]; HePC 0.1%", "value": 0},
      {"measurement": "No. of leaf disks at scale point 4", "setting": "Plasmopara viticola [1]; HePC 0.1%", "value": 0},
      {"measurement": "No. of leaf disks at scale point 5 (sporulation all over the surface)", "setting": "Plasmopara viticola [1]; HePC 0.1%", "value": 0},
      {"measurement": "IF (%) per variant", "setting": "Plasmopara viticola [2]; HePC 0.01% applied once, infestation frequency", "value": 53.4, "unit": "%"},
      {"measurement": "II (%) per REP", "setting": "Plasmopara viticola [2]; HePC 0.01% applied once", "value": "1.67% and 2.89% and 4.00%"},
      {"measurement": "II (%) per variant", "setting": "Plasmopara viticola [2]; HePC 0.01% applied once", "value": 2.85, "unit": "%"},
      {"measurement": "RW II IF (%)", "setting": "Plasmopara viticola [2]; HePC 0.01% applied once", "value": "23.6% and 23.56%"},
      {"measurement": "RW II II (%)", "setting": "Plasmopara viticola [2]; HePC 0.01% applied once", "value": "73.2% and 73.16%"},
      {"measurement": "II (%) per REP", "setting": "Plasmopara viticola [2]; HePC 0.01%, 2 x (also applied one week before)", "value": "0.20% and 0.80% and 0.11%"},
      {"measurement": "IF (%) per variant", "setting": "Plasmopara viticola [2]; HePC 0.01%, 2 x, infestation frequency", "value": 23.7, "unit": "%"},
      {"measurement": "II (%) per variant", "setting": "Plasmopara viticola [2]; HePC 0.01%, 2 x", "value": 0.37, "unit": "%"},
      {"measurement": "RW II IF (%)", "setting": "Plasmopara viticola [2]; HePC 0.01%, 2 x", "value": "66.1% and 66.09%"},
      {"measurement": "RW II II (%)", "setting": "Plasmopara viticola [2]; HePC 0.01%, 2 x", "value": "96.5% and 96.51%"},
      {"measurement": "IF (%) per REP", "setting": "Plasmopara viticola [2]; [6]", "value": "33.3% and 44.4%"},
      {"measurement": "IF (%) per variant", "setting": "Plasmopara viticola [2]; [6]", "value": 37.0, "unit": "%"},
      {"measurement": "II (%) per REP", "setting": "Plasmopara viticola [2]; HePC 0.05%", "value": "2.22% and 1.33% and 0.33%"},
      {"measurement": "II (%) per variant", "setting": "Plasmopara viticola [2]; HePC 0.05%", "value": 1.30, "unit": "%"},
      {"measurement": "RW II IF (%)", "setting": "Plasmopara viticola [2]; HePC 0.05%", "value": "47.0% and 47.02%"},
      {"measurement": "RW II II (%)", "setting": "Plasmopara viticola [2]; HePC 0.05%", "value": 87.8, "unit": "%"},
      {"measurement": "IF (%) per variant", "setting": "Plasmopara viticola [2]; HePC 0.1%, infestation frequency", "value": 25.0, "unit": "%"},
      {"measurement": "II (%) per REP", "setting": "Plasmopara viticola [2]; HePC 0.1%", "value": "0.11% and 0.33% and 0.89%"},
      {"measurement": "II (%) per variant", "setting": "Plasmopara viticola [2]; HePC 0.1%", "value": 0.36, "unit": "%"},
      {"measurement": "RW II IF (%)", "setting": "Plasmopara viticola [2]; HePC 0.1%", "value": "64.2% and 64.24%"},
      {"measurement": "RW II II (%)", "setting": "Plasmopara viticola [2]; HePC 0.1%", "value": 96.6, "unit": "%"},
      {"measurement": "infestation increased by a factor", "setting": "Plasmopara viticola [3]; 0.001% HePC compared with 0.01% HePC", "value": 10},
      {"measurement": "Infestation incidence (%)", "setting": "Plasmopara viticola [3]; HePC 0.001%", "value": 43, "unit": "%"},
      {"measurement": "Infestation intensity (%)", "setting": "Plasmopara viticola [3]; HePC 0.001%", "value": 33.9, "unit": "%"},
      {"measurement": "leaves infested as compared to the positive control", "setting": "Plasmopara viticola [3]; HePC 0.01%", "value": 25, "unit": "%"},
      {"measurement": "Infestation incidence (%)", "setting": "Plasmopara viticola [3]; HePC 0.01%", "value": 13, "unit": "%"},
      {"measurement": "Infestation intensity (%)", "setting": "Plasmopara viticola [3]; HePC 0.01%", "value": 3.6, "unit": "%"},
      {"measurement": "prevention of pathogen infestation", "setting": "[4]", "value": "good effect"},
      {"measurement": "Δ (pH)", "setting": "[5]; HePC final concentration 0.00025%", "value": 0.03},
      {"measurement": "Δ (pH)", "setting": "[5]; HePC final concentration 0.00050%", "value": 0.16},
      {"measurement": "Δ (pH)", "setting": "[5]; HePC final concentration 0.00075%", "value": 0.25},
      {"measurement": "Δ (pH)", "setting": "[5]; HePC final concentration 0.00100% (w/v)", "value": 0.41}
    ]}
  ]
}
